Data set [1] deals with Eukaryotic translation initiation factor 4E (Oryctolagus cuniculus) (UniProt P29338). The data set can be described thus: Inhibition of eIF4E-mediated mRNA translation in rabbit reticulocyte lysate assessed as translation efficiency after 60 mins by luciferase reporter gene assay relative to m7GpppG-capped mRNA. Background: In a reporter assay the amount or activity of a reporter protein is the signal.

The nature of data set [2]: Chemical stability of the compound in aqueous buffer at pH 2 assessed as decomposition at 5 mM up to 2 hrs by RP-HPLC. Type of data set: physicochemical. Particulars: pH 2, 2 h, 5000 µM.
A further data set deals with Nucleic Acid. The data set can be described thus: Capping efficiency in mRNA after 60 mins by gel electrophoresis in the presence of SP6 polymerase. It is filed as nucleic-acid assay.
The nature of data set [3]: (§1) Stability of the compound assessed as human recombinant DcpS -mediated hydrolysis after 90 mins by HPLC. Type of data set: ADME. As to conditions: 1.5 h.
Data set [4] is described as follows: Chemical stability of the compound in aqueous buffer at pH 8 assessed as decomposition at 5 mM after 24 hrs by RP-HPLC. Type of data set: physicochemical. As to conditions: read-out: Drug degradation.
The species named for another data set is Homo sapiens. Briefly: Selectivity ratio of Ka for human recombinant DcpS to Ka for eIF4E.
Data set [5] addresses T1, m7GpppX diphosphatase (Homo sapiens) (UniProt Q96C86).
T1 sequence (whole entry): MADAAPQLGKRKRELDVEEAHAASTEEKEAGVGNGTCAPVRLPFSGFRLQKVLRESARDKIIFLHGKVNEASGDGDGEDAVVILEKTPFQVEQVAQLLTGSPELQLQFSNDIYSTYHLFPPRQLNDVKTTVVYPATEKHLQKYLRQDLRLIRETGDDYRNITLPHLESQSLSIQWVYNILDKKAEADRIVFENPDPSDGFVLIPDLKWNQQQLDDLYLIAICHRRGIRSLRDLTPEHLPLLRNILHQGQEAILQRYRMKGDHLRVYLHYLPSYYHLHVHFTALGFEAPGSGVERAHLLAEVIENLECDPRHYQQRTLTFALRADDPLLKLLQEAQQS
Description: Binding affinity to human recombinant DcpS by fluorescence quenching titration method

Data set [6] can be described thus: Stability of the compound at -20 degreeC after 12 months. Type of data set: physicochemical. Particulars: 8766 h.
A short description of data set [7]: Chemical stability of the compound in aqueous buffer at pH 6 assessed as decomposition at 5 mM after 24 hrs by RP-HPLC. Type of data set: physicochemical. As to conditions: read-out: Drug degradation.
For data set [8], the target named is Eukaryotic translation initiation factor 4E (Homo sapiens) (UniProt P06730). Briefly: Binding affinity to recombinant eIF4E by fluorescence quenching titration method.
Chain of Eukaryotic translation initiation factor 4E (Homo sapiens) (P06730 whole entry): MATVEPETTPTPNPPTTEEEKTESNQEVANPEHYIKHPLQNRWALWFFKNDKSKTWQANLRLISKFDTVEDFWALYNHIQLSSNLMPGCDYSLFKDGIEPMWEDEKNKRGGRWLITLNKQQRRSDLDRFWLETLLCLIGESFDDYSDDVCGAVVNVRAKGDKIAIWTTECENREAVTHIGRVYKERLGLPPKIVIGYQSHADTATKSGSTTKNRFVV
Data set [9] in a line: Chemical stability of the compound in aqueous buffer at pH 6 assessed as decomposition at 5 mM up to 2 hrs by RP-HPLC. It is filed as physicochemical. Particulars: pH 6, 2 h, 5000 µM.
Data set [10] in a line: Chemical stability of the compound in aqueous buffer at pH 2 assessed as decomposition at 5 mM after 24 hrs by RP-HPLC. Type of data set: physicochemical. Particulars: read-out: Drug degradation.
A short description of data set [11]: Chemical stability of the compound in aqueous buffer at pH 8 assessed as decomposition at 5 mM up to 2 hrs by RP-HPLC. It is filed as physicochemical. Particulars: pH 8, 2 h, 5000 µM.
The subject of a further data set is DcpS. Described as §1. Particulars: human, recombinant DcpS; read-out: Drug degradation. Type of data set: ADME.
Data set [12] deals with T2, Eukaryotic translation initiation factor 4E (Oryctolagus cuniculus, UniProt P29338). Briefly: Inhibition of eIF4E-mediated mRNA translation in rabbit reticulocyte lysate pre-incubated for 60 mins prior to mRNA addition by luciferase reporter gene assay.
T2 sequence (P29338 whole entry): as the sequence (P06730 whole entry) above, with T16P, T17A, E174D counted along it
Data set [13] concerns the target T2, Eukaryotic translation initiation factor 4E. Briefly: Inhibition of eIF4E-mediated mRNA translation in rabbit reticulocyte lysate by luciferase reporter gene assay.
Data set [14] in a line: Stability of the compound assessed as human recombinant DcpS -mediated hydrolysis after 2 hrs by HPLC. It is filed as ADME.

Activity calls are given as the source filed them. The rule behind the calls is not given here.

Chain of Eukaryotic translation initiation factor 4E (Oryctolagus cuniculus) (P29338 whole entry): as the sequence (P06730 whole entry) above, with T16P, T17A, E174D counted along it

For the molecule `CO[C@@H]1[C@H](O)[C@@H](COP(=O)([O-])OP(=O)([O-])NP(=O)([O-])OC[C@H]2O[C@@H](n3cnc4c(=O)[nH]c(N)nc43)[C@H](O)[C@@H]2O)O[C@H]1n1c[n+](C)c2c(=O)[nH]c(N)nc21.[Na+].[Na+]`, the fold change (FC) in data set [1] was determined as 1.11. The Drug degradation entry in [2], in [3], in data set [9] and in data set [11] was “Not Active” in each case. The outcome in the data set with Nucleic Acid was Active. For the same molecule, the degraded at 24 h, 5000 µM in [4], in data set [7] and in data set [10] was under 10% in each case. The Ratio in the data set listed under Homo sapiens stood at 1.2. The Ka is 12.8 µM⁻¹ in data set [5] and 10.4 µM⁻¹ in data set [8]. Also, in data set [6], the Stability entry is reported as “Stable”.
As a reminder, the IC50 is the concentration needed to halve the response being measured. A high value points to a need for much substance. Turning to `C[n+]1cn([C@@H]2O[C@H](COP(=O)([O-])OP(=O)([O-])NP(=O)([O-])OC[C@H]3O[C@@H](n4cnc5c(=O)[nH]c(N)nc54)[C@H](O)[C@@H]3O)[C@@H](O)[C@H]2O)c2nc(N)[nH]c(=O)c21.[Na+].[Na+]`, the Drug degradation entry in [2], in data set [9] and in data set [11] was “Not Active” in each case. For the same molecule, the metabolised at 1.5 h in the data set with DcpS came to 20%. The IC50 was 5.97 µM in data set [12] and 8.49 µM in data set [13]. Moreover, the degraded at 24 h, 5000 µM in [4], in data set [7] and in data set [10] was under 10% throughout. In [6], the Stability entry is listed as “Stable”. For the same molecule, the Ka in data set [8] is 10.1 µM⁻¹.
For `CO[C@@H]1[C@H](O)[C@@H](COP(=O)([O-])NP(=O)(O)OP(=O)(O)OP(=O)(O)OC[C@H]2O[C@@H](n3cnc4c(=O)[nH]c(N)nc43)[C@H](O)[C@@H]2O)O[C@H]1n1c[n+](C)c2c(=O)[nH]c(N)nc21.N.N.N`, the fold change (FC) in data set [1] worked out at 0.73. Besides, the Drug degradation result in data set [2], in data set [14], in data set [9] and in data set [11] was “Not Active” throughout. Also, the result in the data set with Nucleic Acid was Active. Further, the degraded at 24 h, 5000 µM in data set [4], in data set [7] and in data set [10] was under 10% each time. Also, in the data set listed under Homo sapiens, the Ratio was 0.38. Also, the Ka amounted to 47.4 µM⁻¹ in data set [5] and 125 µM⁻¹ in data set [8]. Also, the Stability result in data set [6] is “Stable”.

Values taken from ChEMBL document CHEMBL1949618, “Synthesis and properties of mRNA cap analogs containing imidodiphosphate moiety--fairly mimicking natural cap structure, yet resistant to enzymatic hydrolysis” (Bioorg Med Chem, 2012).
